In ChEMBL document CHEMBL5506035, “Discovery of Glutamate Carboxypeptidase III Ligands to Compete the Uptake of [177Lu]Lu-PSMA-617 in Healthy Organs” (J Med Chem, 2024) one finds Kd, Ratio and Activity data, which are given here for 40 molecules.

Calls of active or inactive are those of the source. No cut-off for these calls is given here.

Test [1] deals with T1, N-acetylated-alpha-linked acidic dipeptidase 2 (Homo sapiens, UniProt Q9Y3Q0). Nature of the test: Binding affinity to human recombinant GCPIII assessed as dissociation constant by fluorescence polarization assay. For orientation: Polarisation of emitted light reports the rotation of a fluorescent probe.
T1 sequence (Q9Y3Q0 whole entry): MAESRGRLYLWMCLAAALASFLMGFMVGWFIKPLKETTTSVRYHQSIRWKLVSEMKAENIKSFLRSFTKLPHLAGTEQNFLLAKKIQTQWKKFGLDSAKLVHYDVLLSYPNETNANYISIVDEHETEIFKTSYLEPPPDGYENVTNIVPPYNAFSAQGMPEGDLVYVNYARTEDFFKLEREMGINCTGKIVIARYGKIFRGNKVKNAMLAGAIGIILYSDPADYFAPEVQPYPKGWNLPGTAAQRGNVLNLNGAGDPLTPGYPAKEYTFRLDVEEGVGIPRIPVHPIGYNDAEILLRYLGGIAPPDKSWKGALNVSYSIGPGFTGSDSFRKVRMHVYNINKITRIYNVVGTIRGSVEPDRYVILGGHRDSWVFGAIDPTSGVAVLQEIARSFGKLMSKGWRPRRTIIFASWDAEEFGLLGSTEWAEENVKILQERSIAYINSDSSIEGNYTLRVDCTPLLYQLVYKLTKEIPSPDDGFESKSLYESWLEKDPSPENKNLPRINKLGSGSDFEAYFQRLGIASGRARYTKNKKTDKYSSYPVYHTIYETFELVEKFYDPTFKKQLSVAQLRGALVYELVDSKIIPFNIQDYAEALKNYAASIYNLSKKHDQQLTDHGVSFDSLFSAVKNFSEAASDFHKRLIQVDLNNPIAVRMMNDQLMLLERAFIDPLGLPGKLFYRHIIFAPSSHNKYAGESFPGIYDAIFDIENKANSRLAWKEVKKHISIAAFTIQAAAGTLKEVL
In test [2] the target is T1, N-acetylated-alpha-linked acidic dipeptidase 2. In words: Displacement of [177Lu]LU-PSMA-617 from human recombinant GCPIII assessed as dissociation constant by fluorescence polarization assay.
Test [3] has as its target T2, Glutamate carboxypeptidase 2 (Homo sapiens, UniProt Q04609). Nature of the test: Displacement of [177Lu]LU-PSMA-617 from human recombinant PSMA assessed as dissociation constant by fluorescence polarization assay.
Target sequence in this assay (Q04609 whole entry): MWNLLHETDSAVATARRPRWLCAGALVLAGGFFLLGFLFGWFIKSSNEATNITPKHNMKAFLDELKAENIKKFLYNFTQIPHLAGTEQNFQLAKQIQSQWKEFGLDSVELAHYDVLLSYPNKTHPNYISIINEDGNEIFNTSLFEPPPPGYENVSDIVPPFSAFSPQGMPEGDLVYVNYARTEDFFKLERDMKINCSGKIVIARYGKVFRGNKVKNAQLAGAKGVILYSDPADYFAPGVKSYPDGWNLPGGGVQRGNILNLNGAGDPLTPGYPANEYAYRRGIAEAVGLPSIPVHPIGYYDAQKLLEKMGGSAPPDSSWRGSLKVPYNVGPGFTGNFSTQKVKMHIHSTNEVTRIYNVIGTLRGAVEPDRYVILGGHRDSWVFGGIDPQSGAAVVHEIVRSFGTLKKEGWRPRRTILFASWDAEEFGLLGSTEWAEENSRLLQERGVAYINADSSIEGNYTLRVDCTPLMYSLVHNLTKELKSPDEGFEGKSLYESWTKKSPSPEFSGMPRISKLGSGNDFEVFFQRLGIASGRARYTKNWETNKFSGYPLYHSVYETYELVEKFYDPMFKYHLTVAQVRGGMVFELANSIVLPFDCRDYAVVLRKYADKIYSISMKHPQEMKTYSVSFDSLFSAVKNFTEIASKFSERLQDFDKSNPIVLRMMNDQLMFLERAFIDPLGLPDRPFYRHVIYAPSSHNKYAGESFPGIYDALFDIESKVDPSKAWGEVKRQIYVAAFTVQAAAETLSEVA
Test [4] addresses T2, Glutamate carboxypeptidase 2. In words: Binding affinity to human recombinant PSMA assessed as dissociation constant by fluorescence polarization assay.
Target sequence in this assay (Q04609 whole entry): as above
The species named for the next test is Homo sapiens. In words: Ratio of Kd for binding affinity to human recombinant GCPIII assessed as dissociation constant by fluorescence polarization assay to Kd for binding affinity to human recombinant PSMA assessed as dissociation constant by fluorescence polarization assay.
For test [5], the target named is T2, Glutamate carboxypeptidase 2. Nature of the test: Displacement of [177Lu]LU-PSMA-617 from PSMA in human salivary gland assessed as residual activity at 10 uM incubated for 1 hr by autoradiography analysis relative to control. In kind it is tissue-based.
Target sequence in this assay (Q04609 whole entry, looked up): as the sequence (Q04609 whole entry) above
Test [6] shares this target. In words: Displacement of [177Lu]LU-PSMA-617 from human PSMA at 10 to 100 uM incubated for 15 mins by manual size-exclusion chromatography analysis. The conditions noted are these: dose 10-100 µM.
Target sequence in this assay (Q04609 whole entry, looked up): as the sequence (Q04609 whole entry) above

What is called Kd is a measure of binding affinity in units of concentration. Regarding `Cc1[nH]nnc1C(=O)N[C@@H]1C[C@@H](C(=O)N[C@@H](CCCCNC(=S)Nc2ccc3c(c2)C(=O)OC32c3ccc(O)cc3Oc3cc(O)ccc32)C(=O)O)N(C(=O)c2cnoc2C2CC2)C1`, the Kd in test [1] was over 500 nM. With `O=C(NCCCC[C@H](NC(=O)[C@@H]1C[C@@H](NC(=O)c2c[nH]nn2)CN1C(=O)c1cnoc1C1CC1)C(=O)O)c1c[nH]nn1`, the Kd in test [2] was 12 nM; in test [3], over 20000 nM. On the same counts, the results for `O=C(NC[C@H](NC(=O)[C@@H]1C[C@@H](NC(=O)c2c[nH]nn2)CN1C(=O)c1c[nH]nn1)C(=O)O)c1c[nH]nn1` are 1.5 nM and 231 nM. Regarding `O=C(N[C@@H]1C[C@@H](C(=O)N[C@@H](CCCCNC(=S)Nc2ccc3c(c2)C(=O)OC32c3ccc(O)cc3Oc3cc(O)ccc32)C(=O)O)N(C(=O)c2c[nH]nn2)C1)c1c[nH]nn1`, the results for the Kd in test [1] and in test [4] were 4.8 nM and over 1000 nM, respectively. As to `NC[C@H](NC(=O)[C@@H]1C[C@@H](NC(=O)c2c[nH]nn2)CN1C(=O)c1c[nH]nn1)C(=O)O`, the values for the dissociation constant Kd in test [2] and in test [3] were 10000 nM and over 20000 nM, respectively. In the case of `N=c1ccc2c(-c3ccc(C(=O)NCCCC[C@H](NC(=O)[C@@H]4C[C@@H](NC(=O)c5c[nH]nn5)CN4C(=O)c4cnoc4C4CC4)C(=O)O)cc3C(=O)O)c3ccc(N)c(S(=O)(=O)O)c3oc-2c1S(=O)(=O)O`, the results for the Kd in test [1] and in test [4] were 4.5 nM and over 1000 nM, respectively.

Consider `O=C(N[C@@H]1C[C@@H](C(=O)N[C@@H](CCCCNC(=S)Nc2ccc3c(c2)C(=O)OC32c3ccc(O)cc3Oc3cc(O)ccc32)C(=O)O)N(C(=O)c2cnoc2-c2ccccc2)C1)c1c[nH]nn1`, for which the dissociation constant (Kd) was found to be 6.4 nM in test [1] and 23 nM in test [4]. Consider `CC(=O)N[C@@H]1C[C@@H](C(=O)N[C@@H](CCCCNC(=S)Nc2ccc3c(c2)C(=O)OC32c3ccc(O)cc3Oc3cc(O)ccc32)C(=O)O)N(C(=O)c2cnoc2C2CC2)C1`, for which the dissociation constant (Kd) in test [1] is over 2600 nM. As for `CC(=O)NCCCC[C@H](NC(=O)[C@@H]1C[C@@H](NC(=O)c2c[nH]nn2)CN1C(=O)c1cnoc1C1CC1)C(=O)O`, the Kd in test [2] is 41 nM; in test [3], over 20000 nM. On to `O=C(N[C@@H](CCCCNC(=S)Nc1ccc2c(c1)C(=O)OC21c2ccc(O)cc2Oc2cc(O)ccc21)C(=O)O)c1c[nH]nn1`, for which the equilibrium dissociation constant (Kd) in test [1] turned out to be 87 nM. In addition, the Ratio in the test filed under Homo sapiens is 20.

On to `CCCCCCNC(=S)Nc1ccc2c(c1)C(=O)OC21c2ccc(O)cc2Oc2cc(O)ccc21`, for which the Activity in test [5] worked out at 92%. For the molecule `O=C(Cn1ccnn1)N[C@@H]1C[C@@H](C(=O)N[C@@H](CCCCNC(=S)Nc2ccc3c(c2)C(=O)OC32c3ccc(O)cc3Oc3cc(O)ccc32)C(=O)O)N(C(=O)c2cnoc2C2CC2)C1`, the dissociation constant Kd in test [1] is over 500 nM.

On to `COC(=O)[C@H](CCCCNC(=S)Nc1ccc2c(c1)C(=O)OC21c2ccc(O)cc2Oc2cc(O)ccc21)NC(=O)[C@@H]1C[C@@H](NC(=O)c2c[nH]nn2)CN1C(=O)c1cnoc1C1CC1`, for which the dissociation constant (Kd) in test [1] came out at 12 nM; in test [4], 332 nM. For the molecule `O=C(N[C@@H]1C[C@@H](C(=O)N[C@@H](CNC(=S)Nc2ccc3c(c2)C(=O)OC32c3ccc(O)cc3Oc3cc(O)ccc32)C(=O)O)N(C(=O)c2cnoc2C2CC2)C1)c1c[nH]nn1`, the Kd in test [1] was 6.3 nM; in test [4], over 1000 nM. Also, the Activity in test [5] was found to be 44%. For `Cn1cc(C(=O)N[C@@H]2C[C@@H](C(=O)N[C@@H](CCCCNC(=S)Nc3ccc4c(c3)C(=O)OC43c4ccc(O)cc4Oc4cc(O)ccc43)C(=O)O)N(C(=O)c3cnoc3C3CC3)C2)nn1`, the dissociation constant (Kd) in test [1] is over 500 nM. Regarding `CC(=O)NCCCC[C@H](NC(=O)[C@@H]1C[C@@H](NC(=O)c2c[nH]nn2)CN1C(=O)c1cnoc1C1CC1)C(=O)Nc1c[nH]nn1`, the dissociation constant Kd is 3200 nM in test [2] and over 20000 nM in test [3]. Regarding `CC(C)c1nocc1C(=O)N1C[C@H](NC(=O)c2c[nH]nn2)C[C@H]1C(=O)N[C@@H](CCCCNC(=S)Nc1ccc2c(c1)C(=O)OC21c2ccc(O)cc2Oc2cc(O)ccc21)C(=O)O`, the values for the equilibrium dissociation constant (Kd) in test [1] and in test [4] were 30 nM and over 1000 nM, respectively. On to `CC(=O)NC[C@H](NC(=O)[C@@H]1C[C@@H](NC(=O)c2c[nH]nn2)CN1C(=O)c1c[nH]nn1)C(=O)O`, for which the dissociation constant (Kd) in test [2] was 67 nM; in test [3] it was over 20000 nM. With `O=C(NC[C@H](NC(=O)[C@@H]1C[C@@H](NC(=O)c2c[nH]nn2)CN1C(=O)c1cnoc1C1CC1)C(=O)O)c1c[nH]nn1`, the Kd turned out to be 8 nM in test [2] and 1300 nM in test [3].

For `O=C1OC2(c3ccc(O)cc3Oc3cc(O)ccc32)c2ccc(NC(=S)NCCCC[C@H](NC(=O)[C@@H]3C[C@@H](Cc4c[nH]nn4)CN3C(=O)c3cnoc3C3CC3)C(=O)O)cc21`, the dissociation constant Kd in test [1] is 106 nM; in test [4], over 1000 nM.

`O=C(N[C@@H]1C[C@@H](C(=O)NCCOCCOCCNC(=S)Nc2ccc3c(c2)C(=O)OC32c3ccc(O)cc3Oc3cc(O)ccc32)N(C(=O)c2cnoc2C2CC2)C1)c1c[nH]nn1`: the dissociation constant Kd in test [1] is 24 nM; in test [4] it was 310 nM. For the molecule `Cn1nncc1C(=O)N[C@@H]1C[C@@H](C(=O)N[C@@H](CCCCNC(=S)Nc2ccc3c(c2)C(=O)OC32c3ccc(O)cc3Oc3cc(O)ccc32)C(=O)O)N(C(=O)c2cnoc2C2CC2)C1`, in test [1], the dissociation constant Kd was over 500 nM. On to `O=C(NCCCCNC(=O)NCCCC[C@H](NC(=O)[C@@H]1C[C@@H](NC(=O)c2c[nH]nn2)CN1C(=O)c1cnoc1C1CC1)C(=O)O)NCCCC[C@H](NC(=O)[C@@H]1C[C@@H](NC(=O)c2c[nH]nn2)CN1C(=O)c1cnoc1C1CC1)C(=O)O`, for which the Kd in test [2] amounted to 53 nM; in test [3], 13000 nM. With `O=C(CCOCCOCCOCCOCCOCCOCCOCCOCCOCCOCCC(=O)NCCCC[C@H](NC(=O)[C@@H]1C[C@@H](NC(=O)c2cnn[nH]2)CN1C(=O)c1cnoc1C1CC1)C(=O)O)NCCCC[C@H](NC(=O)[C@@H]1C[C@@H](NC(=O)c2cnn[nH]2)CN1C(=O)c1cnoc1C1CC1)C(=O)O`, the Kd in test [2] was 505 nM; in test [3] it was over 20000 nM. On the same counts, the results for `NCCCC[C@H](NC(=O)[C@@H]1C[C@@H](NC(=O)c2c[nH]nn2)CN1C(=O)c1c[nH]nn1)C(=O)O` are 17000 nM and over 20000 nM. `O=C(N[C@@H]1C[C@@H](C(=O)O)N(C(=O)c2cnoc2C2CC2)C1)c1c[nH]nn1`: the results for the dissociation constant Kd in test [2] and in test [3] were 300 nM and over 20000 nM, respectively. Consider `CC(C)c1oncc1C(=O)N1C[C@H](NC(=O)c2c[nH]nn2)C[C@H]1C(=O)N[C@@H](CCCCNC(=S)Nc1ccc2c(c1)C(=O)OC21c2ccc(O)cc2Oc2cc(O)ccc21)C(=O)O`, for which the Kd is 4.3 nM in test [1] and 178 nM in test [4]. With `CC(=O)NCCCC[C@H](NC(=O)[C@@H]1C[C@@H](NC(=O)c2c[nH]nn2)CN1C(=O)c1c[nH]nn1)C(=O)O`, the equilibrium dissociation constant (Kd) in test [2] was found to be 6400 nM; in test [3] it was 15000 nM.

Consider `O=C(N[C@@H]1C[C@@H](C(=O)N[C@H](CCCCNC(=S)Nc2ccc3c(c2)C(=O)OC32c3ccc(O)cc3Oc3cc(O)ccc32)C(=O)O)N(C(=O)c2cnoc2C2CC2)C1)c1c[nH]nn1`, for which the dissociation constant Kd in test [1] is 23 nM; in test [4] it was over 1000 nM. On to `NCCCC[C@H](NC(=O)[C@@H]1C[C@@H](NC(=O)c2c[nH]nn2)CN1C(=O)c1cnoc1C1CC1)C(=O)O`, for which the Kd is 13000 nM in test [2] and over 20000 nM in test [3].

For `O=C(N[C@@H]1C[C@@H](C(=O)NCCCCCCNC(=S)Nc2ccc3c(c2)C(=O)OC32c3ccc(O)cc3Oc3cc(O)ccc32)N(C(=O)c2cnoc2C2CC2)C1)c1c[nH]nn1`, the Kd worked out at 7 nM in test [1] and 48 nM in test [4]. With `O=C(N[C@@H]1C[C@@H](C(=O)N[C@@H](CCCCNC(=S)Nc2ccc3c(c2)C(=O)OC32c3ccc(O)cc3Oc3cc(O)ccc32)C(=O)O)N(C(=O)c2cnoc2C2CC2)C1)c1nc[nH]n1`, the Kd in test [1] was over 300 nM.

For the molecule `O=C(N[C@@H]1C[C@@H](C(=O)N[C@@H](CCCCNC(=S)Nc2ccc3c(c2)C(=O)OC32c3ccc(O)cc3Oc3cc(O)ccc32)C(=O)O)N(C(=O)c2cnoc2C2CC2)C1)c1c[nH]cn1`, the dissociation constant (Kd) in test [1] was over 300 nM. As to `O=C(O)CC[C@H](NC(=O)N[C@@H](CCCCNC(=O)[C@H](Cc1ccc2ccccc2c1)NC(=O)[C@H]1CC[C@H](CNC(=O)CN2CCN(CC(=O)O)CCN(CC(=O)O)CCN(CC(=O)O)CC2)CC1)C(=O)O)C(=O)O`, the result in test [6] was inactive. As to `O=C(NCCCC[C@H](NC(=O)[C@@H]1C[C@@H](NC(=O)c2c[nH]nn2)CN1C(=O)c1c[nH]nn1)C(=O)O)c1c[nH]nn1`, the values for the equilibrium dissociation constant (Kd) in test [2] and in test [3] were 12 nM and over 20000 nM, respectively. Turning to `O=C1OC2(c3ccc(O)cc3Oc3cc(O)ccc32)c2ccc(NC(=S)NCCCC[C@H](NC(=O)[C@@H]3C[C@@H](n4cc(-c5c[nH]nn5)nn4)CN3C(=O)c3cnoc3C3CC3)C(=O)O)cc21`, in test [1], the dissociation constant Kd is over 300 nM.

Regarding `O=C(NCCCC[C@H](NC(=O)[C@@H]1C[C@@H](NC(=O)c2c[nH]nn2)CN1C(=O)c1c[nH]nn1)C(=O)Nc1c[nH]nn1)c1c[nH]nn1`, the values for the equilibrium dissociation constant (Kd) in test [2] and in test [3] were 338 nM and over 20000 nM, respectively. Regarding `COc1ccc(C2=[N+]3C(=Cc4c(C)c(CCC(=O)NCCCC[C@H](NC(=O)[C@@H]5C[C@@H](NC(=O)c6c[nH]nn6)CN5C(=O)c5cnoc5C5CC5)C(=O)O)c(C)n4[B-]3(F)F)C=C2)cc1`, the results for the Kd in test [1] and in test [4] were 15 nM and over 1000 nM, respectively. Take `CC(=O)NC[C@H](NC(=O)[C@@H]1C[C@@H](NC(=O)c2c[nH]nn2)CN1C(=O)c1cnoc1C1CC1)C(=O)O`: the dissociation constant (Kd) was 2000 nM in test [2] and over 20000 nM in test [3].

Turning to `CC(=O)N1C[C@H](NC(=O)c2c[nH]nn2)C[C@H]1C(=O)N[C@@H](CCCCNC(=S)Nc1ccc2c(c1)C(=O)OC21c2ccc(O)cc2Oc2cc(O)ccc21)C(=O)O`, the Kd in test [1] is 169 nM; in test [4], over 1000 nM.
